Results: ChEMBL document CHEMBL1201862, “PubChem BioAssay data set” (2004)
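Growth conditions: 96-well plates. Treatment: test compound, 48 hours, 5 concentrations. Analysis: linear interpolation between bracketing concentrations; unreached endpoints set to highest concentration. Here, GI50 denotes the concentration required for 50% inhibition of growth.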 Activity calls are given as the source filed them. No stated cut-off is given here; in the data, active = GI50 up to about 1.1 µM and inactive = higher.

How the values were obtained:
Assay in all cases: DTP human tumour cell line panel, 48 h
786-0 = test system: 786-0
ACHN = test system: ACHN
COLO 205 = test system: COLO 205
DU-145 = test system: DU-145
HCT-116 = test system: HCT-116
HOP-62 = test system: HOP-62
IGROV-1 = test system: IGROV-1
KM12 = test system: KM12
MCF7 = test system: MCF7
MDA-MB-435 = test system: MDA-MB-435
Malme-3M = test system: Malme-3M
NCI-H460 = test system: NCI-H460
NCI-H522 = test system: NCI-H522
OVCAR-5 = test system: OVCAR-5
RPMI-8226 = test system: RPMI-8226
SK-MEL-2 = test system: SK-MEL-2
SNB-19 = test system: SNB-19
SW-620 = test system: SW-620
UACC-257 = test system: UACC-257
UO-31 = test system: UO-31

SMILES	GI50 (786-0)	GI50 (ACHN)	GI50 (COLO 205)	GI50 (DU-145)	GI50 (HCT-116)	GI50 (HOP-62)	GI50 (IGROV-1)	GI50 (KM12)	GI50 (MCF7)	GI50 (MDA-MB-435)	GI50 (Malme-3M)	GI50 (NCI-H460)	GI50 (NCI-H522)	GI50 (OVCAR-5)	GI50 (RPMI-8226)	GI50 (SK-MEL-2)	GI50 (SNB-19)	GI50 (SW-620)	GI50 (UACC-257)	GI50 (UO-31)
NC(CS)C(=O)NCCNc1ccc(NCCNC(=O)C(N)CS)c2c1C(=O)c1c(O)ccc(O)c1C2=O (stereo not given)	0.00662 µM (active)	0.00865 µM (active)	0.422 µM (active)	0.0261 µM (active)	0.0391 µM (active)	0.00361 µM (active)	0.219 µM (active)	0.135 µM (active)	0.00402 µM (active)	0.483 µM (active)	0.0653 µM (active)	< 0.001 µM (active)	0.0279 µM (active)	0.481 µM (active)	0.0417 µM (active)	0.427 µM (active)	0.0188 µM (active)	0.0292 µM (active)	0.857 µM (active)	0.0313 µM (active)
COC(=O)[C@H](Cc1ccccc1)NC(=O)N1CCN(C(=O)N[C@@H](Cc2ccccc2)C(=O)OC)CCN(C(=O)N[C@@H](Cc2ccccc2)C(=O)OC)CC1	> 100 µM (inactive)	> 100 µM (inactive)	> 100 µM (inactive)	> 100 µM (inactive)	> 100 µM (inactive)	> 100 µM (inactive)	> 100 µM (inactive)	> 100 µM (inactive)	> 100 µM (inactive)	> 100 µM (inactive)	> 100 µM (inactive)	> 100 µM (inactive)	> 100 µM (inactive)	> 100 µM (inactive)	> 100 µM (inactive)	> 100 µM (inactive)	> 100 µM (inactive)	> 100 µM (inactive)	> 100 µM (inactive)	> 100 µM (inactive)
NC(Cc1c[nH]c2ccccc12)P(=O)(O)O (stereo not given)	> 100 µM (inactive)	> 100 µM (inactive)	> 100 µM (inactive)	> 100 µM (inactive)	> 100 µM (inactive)	> 100 µM (inactive)	> 100 µM (inactive)	> 100 µM (inactive)	> 100 µM (inactive)	> 100 µM (inactive)	> 100 µM (inactive)	> 100 µM (inactive)	> 100 µM (inactive)	> 100 µM (inactive)	> 100 µM (inactive)	> 100 µM (inactive)	> 100 µM (inactive)	> 100 µM (inactive)	> 100 µM (inactive)	> 100 µM (inactive)
CCOC(=O)CN1C(=O)c2c(c(C)n(-c3ccccc3)c2C)C1=O	> 100 µM (inactive)	> 100 µM (inactive)	> 100 µM (inactive)	> 100 µM (inactive)	> 100 µM (inactive)	36 µM (inactive)	> 100 µM (inactive)	> 100 µM (inactive)	> 100 µM (inactive)	> 100 µM (inactive)	> 100 µM (inactive)	> 100 µM (inactive)	> 100 µM (inactive)	> 100 µM (inactive)	> 100 µM (inactive)	> 100 µM (inactive)	> 100 µM (inactive)	> 100 µM (inactive)	> 100 µM (inactive)	> 100 µM (inactive)
COc1ccc2c(c1)c1nn(CCN(C)C)c3ccc4c(=O)n(CCN(C)C)c(=O)n2c4c13	< 0.01 µM (active)	< 0.01 µM (active)	< 0.0143 µM (active)	0.0135 µM (active)	< 0.01 µM (active)	< 0.01 µM (active)	< 0.01 µM (active)	< 0.0142 µM (active)	< 0.0158 µM (active)	< 0.019 µM (active)	0.0904 µM (active)	< 0.01 µM (active)	< 0.01 µM (active)	< 0.0223 µM (active)	< 0.01 µM (active)	0.0323 µM (active)	0.0224 µM (active)	< 0.01 µM (active)	0.208 µM (active)	0.0255 µM (active)
